Assay results published in patent publication US20260166057A1, “1,3,5(10),16-ESTRATETRAEN-3-YL ACETATE FOR USE IN IMPROVING PSYCHOMOTOR OR COGNITIVE PERFORMANCE” (priority 2023, published 2026).

Assays:
US adults = conditions: caffeine intake; cited from earlier work
healthy male volunteers [1] = experiment: Reaction Time Test (psychomotor performance) of the RTTET in mentally fatigued men; assay type: in vivo, human; conditions: relative to placebo, all three non-control tests
healthy male volunteers [2] = experiment: Time Estimation Test (cognitive performance) of the RTTET in mentally fatigued men; conditions: midnight test, relative to placebo
[3] = at night during extended wakefulness; cited from earlier work
mice = conditions: forced swim test in mice; imipramine, desipramine, fluoxetine, paroxetine, escitalopram, reboxetine; cited from earlier work
depressed patients = conditions: cited from earlier work
[4] = at certain dosages; cited from earlier work
[5] = adjunctive therapy for acute depressive episodes, unipolar and bipolar; cited from earlier work

Compound | depression symptoms measured by the PHQ-9 test (US adults) | number of errors (healthy male volunteers [1]; isochronous stimuli) | number of errors (healthy male volunteers [1]; stochastic stimuli) | Time Estimation test improvement (healthy male volunteers [2]) | reaction time and cognitive performance [3] | antidepressant-like activity of six typical antidepressants (mice) | depressive scores (antidepressant action) (depressed patients; chronic supplementation, 60 mg, subjects taking escitalopram) | cognitive performance (depressed patients; low doses, depressed patients) | ADHD symptoms [4] | attention [4] | overall depression scores, remission rates and fatigue [5]
Cn1c(=O)c2c(ncn2C)n(C)c1=O [caffeine] | reduces depression symptoms | significantly decrease | significantly decrease | statistically significant | improved | enhancement | produced rapid antidepressant action by reduction of depressive scores | improved | – | – | –
NC(=O)C[S+]([O-])C(c1ccccc1)c1ccccc1 (centres unmarked) [modafinil] | – | – | – | – | – | – | – | – | significantly improved | significantly improved | improves
